# Experimental data published in patent US20170291890A1 (Epizyme, Inc., priority 2014, published 2017).
# Columns and labels:
# KDM4C = target: T1, KDM4C (Homo sapiens, UniProt Q9H3R0); experiment: KDM4C Assay (SAMDI mass spectrometry demethylase assay); format: biochemical; conditions: N-terminal GST-tagged KDM4C 2-372; class symbols; read-out: 4C IC50
# T1 construct: N-terminal GST-tagged KDM4C^2-372 was purchased from BPS Biosciences; GST (N); purchased BPS Biosciences
# T1 sequence (Q9H3R0 2-372): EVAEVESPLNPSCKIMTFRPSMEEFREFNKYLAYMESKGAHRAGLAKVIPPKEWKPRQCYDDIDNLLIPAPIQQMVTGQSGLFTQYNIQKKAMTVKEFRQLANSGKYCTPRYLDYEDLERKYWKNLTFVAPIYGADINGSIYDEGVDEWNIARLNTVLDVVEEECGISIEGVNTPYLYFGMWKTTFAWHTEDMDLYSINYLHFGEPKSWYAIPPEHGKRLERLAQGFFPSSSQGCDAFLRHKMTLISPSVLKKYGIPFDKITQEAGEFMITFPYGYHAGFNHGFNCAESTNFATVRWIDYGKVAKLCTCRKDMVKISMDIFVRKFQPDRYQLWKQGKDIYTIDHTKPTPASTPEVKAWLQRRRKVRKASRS
# How it was run: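 GST-tagged KDM4C 2-372 (5 nM) preincubated 30 min with compound, then H3K9me3 biotinylated peptide (500 nM) and 2-oxoglutarate (15 μM) added in HEPES pH 8.0 with ascorbate, Fe(II), TCEP; 150 min at 25 °C, formic-acid quench. Conversion by SAMDI mass spectrometry from substrate/product peak AUC; IC50 from dose-response.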
# KDM4A = target: T2, KDM4A (Homo sapiens, UniProt O75164); experiment: KDM4A Assay (SAMDI mass spectrometry demethylase assay); format: biochemical; conditions: N-terminal His-tagged KDM4A 1-350; class symbols; read-out: 4A IC50
# T2 construct: N-terminal His-tagged KDM4A^1-350 was purchased from BPS Biosciences; His (N); purchased BPS Biosciences
# T2 sequence (O75164 1-350): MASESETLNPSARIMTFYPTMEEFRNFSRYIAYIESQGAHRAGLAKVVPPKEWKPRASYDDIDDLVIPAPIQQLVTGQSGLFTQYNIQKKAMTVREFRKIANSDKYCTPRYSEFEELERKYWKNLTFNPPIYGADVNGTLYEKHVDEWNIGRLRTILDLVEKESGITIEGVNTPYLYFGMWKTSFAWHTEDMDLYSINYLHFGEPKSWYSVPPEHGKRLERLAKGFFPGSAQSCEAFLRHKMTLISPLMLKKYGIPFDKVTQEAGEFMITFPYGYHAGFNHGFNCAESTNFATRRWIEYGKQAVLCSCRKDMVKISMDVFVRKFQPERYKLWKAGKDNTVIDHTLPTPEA
# Method: N-terminal His-tagged KDM4A^1-350 was purchased from BPS Biosciences. Peptides were synthesized by BioPeptide and all other reagents were purchased from Sigma-Aldrich at the highest level of purity possible. Assays were performed in a 50 μL volume in 384-well V-bottom polypropylene microplates (Greiner) at 25° C. Optimized 1× assay buffer was 50 mM HEPES (pH=8.0), 100 μM sodium ascorbate, 20 mM NaCl, 10 μM ammonium iron sulfate, 1 mM tris(2-carboxyethyl)phosphine (TCEP), 0.002% Tween-20, and 0.005% BSG. For compound screening, 35 μL of KDM4A^1-350 (final concentration, f.c.=5 nM) was added using a Multidrop Combi and preincubated with 1 μL of test compound (f.c.=10 μM) for 30 minutes and subsequently 15 μL of peptide with the following sequence NH2-ARTKQTAR(Kme2)STGGKAPRKQLA(K-Ahx-Biotin)-amide (f.c.=600 nM) and 2-oxoglutarate (f.c.=5 μM) was added by Multidrop Combi to begin the reaction. Reactions proceeded for 120 minutes and were stopped by the addition of 5 μL of formic acid (f.c.=0.5%) using a Multidrop Combi and then analyzed by SAMDI Tech Inc.
# SAMDI Tech analyzed all reactions using self-assembled monoloayer desorption/ionization technology as previously described (Gerard-Levin Z A, Scholle M D, Eisenberg A H, et al.: High-throughput screening of small molecule libraries using SAMDI mass spectrometry. ACS Comb Sci 2011; 13:347-350). Briefly, a 2 μL sample of the stopped demethylase reactions were transferred to a SAMDI array coated with 384 biotin-neutravidin spots using a 384-channel pipet station. The SAMDI arrays were incubated for 1 h in a humidified chamber, followed by washing of the surface with deionized ultra-filtered water (DIUF) and drying under nitrogen. A matrix of 30 mg/ml 2′,4′,6′-Trihydroxyacetophenone monohydrate (THAP) in acetone was applied using a TPP Mosquito 1.2 μL tip by dispensing 50 nL on each of the 384 spots on the array. SAMDI-MS was run using acquisition method ReflectorPositiveUTX. The % conversion of substrate to product was calculated using the AUC of the substrate and product peptide peaks.
# An IC50 value was determined by contacting various concentrations of a test compound with one of the KDM4A, KDM4C or KDMSC enzyme constructs and plotting a dose-response curve which associates the amount of inhibition of the enzyme relative to the concentration of the test compound. From the curve, the IC50 value (which represents the concentration of the test compound necessary to inhibit maximal enzymatic activity by 50%) was determined. Additionally, the slope of the linear range of the plotted curve, which indicates the speed with which the curve rises between the minimum and maximum, was calculated.
SMILES,IC50 (KDM4C),IC50 (KDM4A)
"CN1CCN(CCn2ncc(-c3ccccc3)c2Nc2cnccc2C(=O)O)CC1 [Compound 35, 3-((1-(2-(4-methylpiperazin-1-yl)ethyl)-4-phenyl-1H-pyrazol-5-yl)amino)isonicotinic acid]",0.1 to 1 µM,0.1 to 1 µM
"O=C(O)c1ccncc1Nc1nn(CCN2CCC(F)(F)CC2)cc1C1CCCCC1 [Compound 57, 3-((4-cyclohexyl-1-(2-(4,4-difluoropiperidin-1-yl)ethyl)-1H-pyrazol-3-yl)amino)isonicotinic acid]",0.1 to 1 µM,0.1 to 1 µM
"Cc1n[nH]c(-c2ccccc2)c1Nc1cnccc1C(=O)O [Compound 55, 3-((5-methyl-3-phenyl-1H-pyrazol-4-yl)amino)isonicotinic acid]",1 to 10 µM,1 to 10 µM
"Cc1nn(C2CCN(CC(F)(F)F)CC2)cc1Nc1cnccc1C(=O)O [Compound 99, 3-(3-methyl-1-(1-(2,2,2-trifluoroethyl)piperidin-4-yl)-1H-pyrazol-4-ylamino)isonicotinic acid]",1 to 10 µM,0.1 to 1 µM
"Cc1c(Nc2cnccc2C(=O)O)cnn1[C@H]1CC[C@@H](N)CC1 [Compound 79, 3-((1-((cis)-4-aminocyclohexyl)-5-methyl-1H-pyrazol-4-yl)amino)isonicotinic acid]",0.001 to 0.1 µM,0.001 to 0.1 µM
"Cc1nn(C2CCCNCC2)cc1Nc1cnccc1C(=O)O (single isomer, unassigned) [Compound 114]",0.1 to 1 µM,0.1 to 1 µM
"N[C@H]1CC[C@H](n2nc(-c3ccccc3)cc2Nc2cnccc2C(=O)O)CC1 [Compound 38, 3-((1-((trans)-4-aminocyclohexyl)-3-phenyl-1H-pyrazol-5-yl)amino)isonicotinic acid]",10 to 100 µM,10 to 100 µM
"CC(C)n1nc(-c2ccccc2)cc1Nc1cnccc1C(=O)O [Compound 22, 3-((1-Isopropyl-3-phenyl-1H-pyrazol-5-yl)amino)isonicotinic acid]",0.1 to 1 µM,0.1 to 1 µM
"O=C(O)c1ccncc1Nc1cc(-c2ccccc2)nn1-c1ccncc1 [Compound 56, 3-((3-phenyl-1-(pyridin-4-yl)-1H-pyrazol-5-yl)amino) isonicotinic acid]",0.1 to 1 µM,0.1 to 1 µM
"O=C(O)c1ccncc1Nc1cc(-c2ccccc2)nn1[C@H]1CC[C@H](O)CC1 [Compound 39, 3-((1-((trans)-4-hydroxycyclohexyl)-3-phenyl-1H-pyrazol-5-yl)amino)isonicotinic acid]",0.1 to 1 µM,1 to 10 µM
"Cn1cc(-c2ccccc2F)c(Nc2cnccc2C(=O)O)n1 [Compound 11, 3-((4-(2-Fluorophenyl)-1-methyl-1H-pyrazol-3-yl)amino) isonicotinic acid]",0.1 to 1 µM,0.1 to 1 µM
"Cc1nn(-c2ccc(O)cc2)c(C)c1Nc1cnccc1C(=O)O [Compound 76, 3-((1-(4-hydroxyphenyl)-3,5-dimethyl-1H-pyrazol-4-yl)amino)isonicotinic acid]",1 to 10 µM,0.1 to 1 µM
"Cn1nc(-c2cccc(Cl)c2)cc1Nc1cnccc1C(=O)O [Compound 25, 3-((3-(3-chlorophenyl)-1-methyl-1H-pyrazol-5-yl)amino) isonicotinic acid]",1 to 10 µM,0.1 to 1 µM
Cn1ncc(-c2ccccc2)c1Nc1cnccc1C(=O)O [Compound 1],0.1 to 1 µM,0.1 to 1 µM
"Cc1c(Nc2cnccc2C(=O)O)cnn1C1CCN(CC(F)(F)F)CC1 [Compound 100, 3-(5-methyl-1-(1-(2,2,2-tri-fluoro-ethyl)piperidin-4-yl)-1H-pyrazol-4-ylamino)isonicotinic acid]",0.1 to 1 µM,0.1 to 1 µM
Cc1c(Nc2cnccc2C(=O)O)cnn1C1CCN(C2CCC2)CC1 [Compound 96],0.1 to 1 µM,0.001 to 0.1 µM
"CNC(=O)c1ccc(-n2ncc(Nc3cnccc3C(=O)O)c2C)cc1 [Compound 58, 3-((5-methyl-1-(4-(methylcarbamoyl)phenyl)-1H-pyrazol-4-yl)amino) isonicotinic acid]",0.001 to 0.1 µM,0.001 to 0.1 µM
Cc1cn(-c2ccccc2)c(Nc2cnccc2C(=O)O)n1 [Compound 2],0.1 to 1 µM,0.1 to 1 µM
Cn1nc(-c2ccccc2)cc1Nc1cnccc1C(=O)O [Compound 6],1 to 10 µM,0.1 to 1 µM
"CNC(=O)c1cccc(-n2ncc(Nc3cnccc3C(=O)O)c2C)c1 [Compound 59, 3-((5-methyl-1-(3-(methylcarbamoyl)phenyl)-1H-pyrazol-4-yl)amino) isonicotinic acid]",0.001 to 0.1 µM,0.001 to 0.1 µM
"CCn1nc(-c2ccccc2)cc1Nc1cnccc1C(=O)O [Compound 36, 3-((1-Ethyl-3-phenyl-1H-pyrazol-5-yl)amino)isonicotinic acid]",0.1 to 1 µM,0.1 to 1 µM
"Cc1n[nH]c(C)c1Nc1cnccc1C(=O)O [Compound 16, 3-((3,5-Dimethyl-1H-pyrazol-4-yl)amino)isonicotinic acid]",10 to 100 µM,1 to 10 µM
"Cn1cc(-c2cccc(F)c2)c(Nc2cnccc2C(=O)O)n1 [Compound 9, 3-((4-(3-Fluorophenyl)-1-methyl-1H-pyrazol-3-yl)amino) isonicotinic acid]",0.1 to 1 µM,0.1 to 1 µM
"Cc1nn(C2CCN(C(=O)c3ccccc3)CC2)cc1Nc1cnccc1C(=O)O [Compound 97, 3-(1-(1-benzoylpiperidin-4-yl)-3-methyl-1H-pyrazol-4-ylamino) isonicotinic acid]",1 to 10 µM,1 to 10 µM
Cc1c(Nc2cnccc2C(=O)O)cnn1C1CCN(C(C)C)CC1 [Compound 104],0.1 to 1 µM,0.1 to 1 µM
"Cn1ncc(-c2ccccc2F)c1Nc1cnccc1C(=O)O [Compound 12, 3-((4-(2-fluorophenyl)-1-methyl-1H-pyrazol-5-yl)amino) isonicotinic acid]",0.001 to 0.1 µM,0.1 to 1 µM
"Cc1cn(-c2ccccc2)nc1Nc1cnccc1C(=O)O [Compound 62, 3-((4-methyl-1-phenyl-1H-pyrazol-3-yl)amino) isonicotinic acid]",0.001 to 0.1 µM,0.001 to 0.1 µM
"O=C(O)c1ccncc1Nc1cc(-c2ccccc2)nn1[C@H]1CC[C@@H](O)CC1 [Compound 40, 3-((1-((cis)-4-Hydroxycyclohexyl)-3-phenyl-1H-pyrazol-5-yl)amino)isonicotinic acid]",1 to 10 µM,1 to 10 µM
